Entries after “also recorded” stand apart in the source; their conditions may differ.
Legend:
[1] = tested on: adult subjects with late-onset Pompe disease (LOPD); test: Study ATB200-03 (PROPEL): PROMIS-Physical Function; format: in vivo, human; details: for PROMIS-Physical Function Short Form 20a total score CHG, LS means (SE) / PROMIS-Physical Function Short Form 20a total score CHG, Difference of LS means (SE) (cipaglucosidase alfa/miglustat − alglucosidase alfa/placebo): Week 52; for CHG to Week 52 in PROMIS-Physical Function total score, LS Mean Treatment Difference: MMRM, actual time point; for PROMIS physical function outcome: overall and ERT-experienced populations
Method: The test for the primary endpoint was conducted first at the 1-sided 0.025 significance level, and if significant, the ordered key secondary endpoints were similarly tested at the same significance level. The statistical significance of the key secondary endpoints was interpreted following a hierarchical testing order, each at the 1-sided alpha level of 0.025. […] Primary analyses of efficacy were performed using the mixed-effect model for repeated measures (MMRM) for 6MWD in Intent-to-treat Observed Population (ITT) that includes all available, observed data without any missing data imputation (ITT-OBS) and analysis of covariance (ANCOVA) for all other endpoints in the Intent-to-Treat-Last Observation Carried Forward (ITT-LOCF) Population. A nonparametric randomization based ANCOVA was specified as the first sensitivity analysis for 6MWD and FVC. […] For the purposes of data presentation in this document, 2-sided p-values are reported hereafter, except as otherwise noted.

adult subjects with LOPD = test: Study ATB200-07 (OLE): Hex4
Method: The Phase III double-blind PROPEL study (NCT03729362; ATB200-03) described in Examples 9 and 10 above compared the investigational two-component therapy cipaglucosidase alfa/miglustat (cipa/mig) with alglucosidase alfa/placebo (alglu) in adults with late-onset Pompe disease (LOPD) over 52 weeks. The ongoing open-label extension (OLE) of PROPEL (NCT04138277; ATB200-07) evaluates long-term safety and efficacy of cipa/mig. Outcomes include 6 minute walk distance (6MWD), forced vital capacity (FVC), creatine kinase (CK) and hexose tetrasaccharide (Hex4) levels and safety. Data are reported as change from the PROPEL baseline to OLE week 52 (104 weeks after the PROPEL baseline).

[2] = tested on: adult subjects with Pompe disease; test: Pooled Studies ATB200-02/03/07 (Pool 2): 6MWD by exposure interval
Method: The pooled efficacy analyses presented within this section include the outlier (Pool 2). […] Pooled efficacy analyses excluding the outlier subject (Pool 2A) were also performed.
No long-term data for the alglucosidase alfa/placebo group are available, as all subjects switched to cipaglucosidase alfa/miglustat in Study ATB200-07.
Efficacy data from the 3 adult Pompe disease clinical studies were pooled and analyzed to further support the long-term efficacy of cipaglucosidase alfa/miglustat in adult subjects. Data from non-ambulatory subjects (Study ATB200-02 Cohort 2) were not included in the pool as there was little overlap of efficacy endpoints for this group with the various ambulatory groups, such as 6MWD and lower MMT.
The 3 adult Pompe disease clinical studies were pooled as follows: • The cipaglucosidase alfa/miglustat treatment group consists of: • All ambulatory subjects in Study ATB200-02 (Cohorts 1, 3, and 4), • All subjects randomized to the cipaglucosidase alfa/miglustat treatment group in Study ATB200-03, and • All subjects enrolled in Study ATB200-07. • The alglucosidase alfa/placebo treatment group consists of: • All subjects randomized to the ERT treatment group in Study ATB200-03.

[3] = Week 52-LOCF, ITT excluding Subject 4005-2511
[4] = exposure interval >15 to ≤24 months, Pool 2, including the outlier
[5] = exposure interval >24 months, Pool 2, including the outlier
[6] = exposure interval ≤15 months, Pool 2, including the outlier

ATB200/miglustat: two-component therapy: cipaglucosidase alfa (ATB200) administered in conjunction with miglustat (AT2221), a stabilizer of cipaglucosidase alfa
PROMIS-Physical Function Short Form 20a total score Absolute Value, Mean (SD) [1, 3]: 68.80 (12.954) | PROMIS-Physical Function Short Form 20a total score Absolute Value, Median [1, 3]: 68.00 | PROMIS-Physical Function Short Form 20a total score CHG, Mean (SD) [1, 3]: 1.94 (7.498) | PROMIS-Physical Function Short Form 20a total score CHG, Median [1, 3]: 0.00 | PROMIS-Physical Function Short Form 20a total score CHG, LS means (SE) ([1]; ANCOVA, ITT-LOCF excluding Subject 4005-2511): 1.98 (0.921) | PROMIS-Physical Function Short Form 20a total score CHG, Difference of LS means (SE) (cipaglucosidase alfa/miglustat − alglucosidase alfa/placebo) ([1]; ANCOVA, ITT-LOCF excluding Subject 4005-2511, 2-sided p 0.276): 1.87 (1.706) | PROMIS-Physical Function Short Form 20a total score CHG, LS means (SE) ([1]; ANCOVA, ITT-LOCF, ERT-experienced Population): 1.90 (1.071) | PROMIS-Physical Function Short Form 20a total score CHG, Difference of LS means (SE) (cipaglucosidase alfa/miglustat − alglucosidase alfa/placebo) ([1]; ANCOVA, ITT-LOCF, ERT-experienced Population, 2-sided p 0.110): 3.14 (1.948) | LS Mean Treatment Difference (SE), CHG to Week 52 in PROMIS-Physical Function total score ([1]; cipaglucosidase alfa/miglustat − alglucosidase alfa/placebo, ITT-LOCF, ANCOVA, 2-sided p 0.426): 1.37 (1.714) | Change in PROMIS-Physical Function total score baseline to Week 52, Difference of LS means (SE) from ANCOVA ([1]; cipaglucosidase alfa/miglustat − alglucosidase alfa/placebo, ITT-LOCF, ERT-naïve Subjects excluding Subject 4005-2511): −5.09 (4.288) | CHG to Week 52 in PROMIS-Physical Function total score, LS Mean Treatment Difference ([1]; cipaglucosidase alfa/miglustat − alglucosidase alfa/placebo, ITT-OBS excluding Subject 4005-2511 (overall)): 2.5 | CHG to Week 52 in PROMIS-Physical Function total score, LS Mean Treatment Difference ([1]; cipaglucosidase alfa/miglustat − alglucosidase alfa/placebo, ITT-OBS excluding Subject 4005-2511, ERT-naïve Subjects): −3.1 | CHG to Week 52 in PROMIS-Physical Function total score, LS Mean Treatment Difference ([1]; cipaglucosidase alfa/miglustat − alglucosidase alfa/placebo, ITT-OBS, ERT-experienced Subjects): 3.5 | PROMIS physical function outcome [1]: PROMIS physical function numerically favored ATB200/miglustat treatment | PROMIS physical function outcome ([1]; listed as AT-GAA): improved numerically more than alglucosidase alfa treated patients | mean (SD) change in PROMIS-Physical Function total score from baseline to Week 52 ([1]; overall population): 1.9 (7.50) | Hex4 course to Week 104 (adult subjects with LOPD; OLE-ES Population, listed as cipaglucosidase alfa/miglustat): CK and Hex4 declined substantially through Study ATB200-03, then stabilized through Study ATB200-07; also recorded: decreased substantially after subjects switched to cipaglucosidase alfa/miglustat through Week 104 | Hex4, mean BSL (adult subjects with LOPD; Study ATB200-03 baseline, OLE-ES Population excluding Subject 4005-2511): 4.6 | Hex4, mean 52-wk CFB (adult subjects with LOPD; change from ATB200-03 baseline at Week 52, OLE-ES excluding Subject 4005-2511): −2.0 | Hex4, mean 104-wk CFB (adult subjects with LOPD; change from ATB200-03 baseline at Week 104, alglucosidase alfa/placebo group switched to cipaglucosidase alfa/miglustat at Week 52, OLE-ES excluding Subject 4005-2511): −2.1 | mean (SD) improvement in % predicted 6MWD ([2]; after at least 24 months (n=70)): 3.3 (10.84) | mean (SD) improvement in 6MWD ([2]; exposure >15 to ≤24 months (n=108)): 17.7 (55.61) meters | mean (SD) improvement in 6MWD ([2]; exposure >24 months (n=70)): 9.7 (67.13) meters | 6MWD Baseline, Mean [2, 4]: 366.33 meters | 6MWD Baseline, Median [2, 4]: 369.25 meters | 6MWD change from baseline, mean [2, 4]: 17.67 meters | 6MWD change from baseline, median [2, 4]: 11.75 meters | 6MWD Baseline, Mean [2, 5]: 367.77 meters | 6MWD Baseline, Median [2, 5]: 376.43 meters | 6MWD change from baseline, mean [2, 5]: 9.67 meters | 6MWD change from baseline, median [2, 5]: 5.23 meters | 6MWD Baseline, Mean ([2]; exposure interval ≤15 months, Pool 2, Efficacy Population including the outlier): 367.10 meters | 6MWD Baseline, Median [2, 6]: 373.75 meters | 6MWD change from baseline, median [2, 6]: 12.00 meters | 6MWD change from baseline, mean ([2]; exposure interval ≤15 months, last available post-baseline value − baseline, Pool 2, including the outlier): 17.13 meters | mean (SD) improvement in 6MWD ([2]; exposure ≤15 months (n=143)): 17.1 (44.92) meters

— patent US20260041744A1, “Methods for Treating Pompe Disease” (Amicus Therapeutics, Inc., priority 2022, published 2026)
